Laboratory results published in US5077405A, “3-(1-Substituted-4-piperazinyl)-1H-indazoles” (Hoechst-Roussel Pharmaceuticals Incorporated, priority 1990, dated 1991).
Where a name gives a salt, the structure may show the parent alone.

How the values were obtained:
mice [1] = assay: 2-phenyl-1,4-benzoquinone-induced writhing test in mice (analgesia); assay type: in vivo; conditions: Mus musculus, sc, read-out: Dose (subcutaneous) [ED50], inhibition of writhing
mice [2] = assay: climbing mice assay (apomorphine-induced climbing; antipsychotic activity); assay type: in vivo, CK-1 male mice; conditions: Mus musculus, read-out: Antipsychotic Activity (Climbing Mice Assay) ED50
Experimental: Antipsychotic activity is determined in the climbing mice assay by methods similar to those described by P. Protais, et al., Psychopharmacol, 50, 1 (1976) and B. Costall, Eur. J. Pharmacol., 50, 39 (1978).
The subject CK-1 male mice (23-27 grams) are group-housed under standard laboratory conditions. The mice are individually placed in wire mesh stick cages (4"×4"×10") and are allowed one hour for adaptation and exploration of the new environment. Then apomorphine is injected subcutaneously at 1.5 mg/kg, a dose causing climbing in all subjects for 30 minutes. Compounds to be tested for antipsychotic activity are injected intraperitoneally 30 minutes prior to the apomorphine challenge at a screening dose of 10 mg/kg.
For evaluation of climbing, 3 readings are taken at 10, 20 and 30 minutes after apomorphine administration according to the following scale:
4 paws on bottom (no climbing)
2 paws on the wall (rearing)
4 paws on the wall (full climb)
Mice consistently climbing before the injection of apomorphine are discarded.
With full-developed apomorphine climbing, the animals are hanging onto the cage walls, rather motionless over longer periods of time. By contrast, climbs due to mere motor stimulation usually last only a few seconds.
The climbing scores are individually totaled (maximum score: 6 per mouse over 3 readings) and the total score of the control group (vehicle intraperitoneally-apomorphine subcutaneously) is set to 100%. ED50 values with 95% confidence limits, calculated by a linear regression analysis of some of the compounds of this invention are presented in Table II.

[3] = mice, subcutaneous, 2-phenyl-1,4-benzoquinone-induced writhing
[4] = male mice, ip 30 min before apomorphine 1.5 mg/kg sc, linear regression

SMILES: CC(=O)n1nc(N2CCN(C)CC2)c2ccccc21 [1-Acetyl-3-(4-methyl-1-piperazinyl)-1H-indazole]
- ED50 (mice [1]): 2.1 mg/kg

SMILES: CN1CCN(c2nn(C(=O)c3ccccc3)c3cc(F)ccc23)CC1 [1-Benzoyl-6-fluoro-3-(4-methyl-1-piperazinyl)-1H-indazole]
- ED50 (mice [1]; [3]): 4.3 mg/kg

SMILES: CN1CCN(c2nn(CC3CC3)c3ccccc23)CC1 [1-Cyclopropylmethyl-3-(4-methyl-1-piperazinyl)-1H-indazole]
- ED50 (mice [1]; [3]): 1.5 mg/kg

SMILES: CCn1nc(N2CCN(C)CC2)c2ccccc21 [1-ethyl-3-(4-methyl-1-piperazinyl)-1H-indazole]
- ED50 (mice [1]): 0.5 mg/kg

SMILES: c1ccc2c(N3CCNCC3)n[nH]c2c1 [3-(1-piperazinyl)-1H-indazole, 3-(1-Piperazinyl)-1H-indazole]
- ED50 (mice [1]): 0.9 mg/kg

SMILES: CN1CCN(c2n[nH]c3ccccc23)CC1 [3-(4-methyl-1-piperazinyl)-1H-indazole, 3-(4-Methyl-1-piperazinyl)-1H-indazole]
- ED50 (mice [1]): 0.04 mg/kg

SMILES: Cl.Cl.OCCN1CCN(c2n[nH]c3ccccc23)CC1 [3-[4-(2-Hydroxyethyl)-1-piperazinyl]-1H-indazole dihydrochloride]
- ED50 (mice [1]; [3]): 2 mg/kg

SMILES: Fc1ccc(C(CCCN2CCN(c3n[nH]c4ccccc34)CC2)c2ccc(F)cc2)cc1 [3-[4-[4,4-Bis(4-fluorophenyl)butyl-1-piperazinyl]-1H-indazole hydrochloride]
- ED50 (mice [2]; [4]): 0.87 mg/kg
- ED50 (mice [1]; [3]): 3.6 mg/kg

SMILES: Cc1[nH]c2ccccc2c1CCCN1CCN(c2n[nH]c3ccccc23)CC1 [3-{4-[3-(2-Methylindol-3-yl)propyl]-1-piperazinyl}-1H-indazole hemifumarate]
- ED50 (mice [2]; [4]): 0.4 mg/kg

SMILES: CN1CCN(c2n[nH]c3ccc(Cl)cc23)CC1 [5-Chloro-3-(4-methyl-1-piperazinyl)-1H-indazole]
- ED50 (mice [1]): 6.8 mg/kg

SMILES: Cl.Fc1ccc2c(N3CCNCC3)n[nH]c2c1 [6-Fluoro-3-(1-piperazinyl)-1H-indazole Hydrochloride]
- ED50 (mice [2]; ip): 6.4 mg/kg

SMILES: CN1CCN(c2n[nH]c3cc(F)ccc23)CC1 [6-Fluoro-3-(4-methyl-1-piperazinyl)-1H-indazole]
- ED50 (mice [2]; ip): 4.7 mg/kg

SMILES: O=c1[nH]c2ccccc2n1CCCN1CCN(c2n[nH]c3cc(F)ccc23)CC1 [6-Fluoro-3-{4-[3-(1,3-dihydro-2-oxo-2H-benzimidazol-1-yl)propyl]-1-piperazinyl}-1H-indazole Hemifumarate]
- ED50 (mice [2]; [4]): 0.43 mg/kg

SMILES: Cn1nc(N2CCN(CCCCN3C(=O)CC4(CCCC4)CC3=O)CC2)c2ccccc21 [8-[4-[1-(1-Methyl-1H-indazol-3-yl)-4-piperazinyl]butyl-8-azaspiro[4,5]decane-7,9-dione fumarate]
- ED50 (mice [2]; [4]): 7.3 mg/kg

SMILES: O=C1CC2(CCCC2)CC(=O)N1CCCCN1CCN(c2n[nH]c3ccccc23)CC1 [8-[4-[1-(1H-indazol-3-yl)-4-piperazinyl]butyl-8-azaspiro[4.5]decane-7,9-dione hemifumarate]
- ED50 (mice [2]; [4]): 0.6 mg/kg
- ED50 (mice [1]; [3]): 0.07 mg/kg

SMILES: O=C(CCCN1CCC(O)(c2ccc(Cl)cc2)CC1)c1ccc(F)cc1 [haloperidol, reference compound]
- ED50 (mice [2]; ip): 0.11 mg/kg

SMILES: CCC(=O)O[C@](Cc1ccccc1)(c1ccccc1)[C@H](C)CN(C)C [propoxyphene, reference compound]
- ED50 (mice [1]): 3.9 mg/kg
